Values after ≈ are worked out from the molar mass of the structure shown. Read-outs that look alike come from different tables or passages of the source.
Key:
[1] = tested on: Klebsiella pneumoniae X68; experiment: MIC, standard agar-dilution assay; format: cell-based; conditions: read-out: MIC
[2] = tested on: Escherichia coli EC14; experiment: MIC, standard agar-dilution assay; format: cell-based; conditions: read-out: MIC
[3] = tested on: Staphylococcus epidermidis 222; experiment: MIC, standard agar-dilution assay; format: cell-based; conditions: read-out: MIC
[4] = tested on: Staphylococcus aureus X1.1; experiment: MIC, standard agar-dilution assay; format: cell-based; conditions: read-out: MIC
[5] = tested on: Streptococcus sp. group D X66; experiment: MIC, standard agar-dilution assay; format: cell-based; conditions: Streptococcus sp. group D X66; read-out: MIC
[6] = tested on: Streptococcus pyogenes C203; experiment: MIC, standard agar-dilution assay; format: cell-based; conditions: read-out: MIC
[7] = tested on: Haemophilus influenzae 76; experiment: MIC, standard agar-dilution assay; format: cell-based; conditions: Haemophilus influenzae 76, Ampicillin-resistant strain; read-out: MIC
[8] = tested on: Staphylococcus aureus S13E; experiment: MIC, standard agar-dilution assay; format: cell-based
[9] = tested on: Streptococcus pyogenes; experiment: Experimental bacterial infection in mice, ED50; format: in vivo; conditions: two doses, dose protecting 50% of animals; for ED50: Streptococcus pyogenes
Experimental: (§1) The new derivatives of this invention have also shown in vivo antimicrobial activity against experimental bacterial infections. When two doses of test compound were administered to mice in experimental infections, the activity observed was measured as an EDso value [effective dose in mg/kg to protect 50% of the test animals: see Warren Wick, et al., J. Bacteriol. 81, 233-235 (1961)].

[10] = tested on: Staphylococcus aureus; experiment: Experimental bacterial infection in mice, ED50; format: in vivo; conditions: two doses, dose protecting 50% of animals; for ED50: Staphylococcus aureus
Experimental: as §1

[11] = tested on: Streptococcus pneumoniae; experiment: Experimental bacterial infection in mice, ED50; format: in vivo; conditions: two doses, dose protecting 50% of animals; for ED50: Streptococcus pneumoniae
Experimental: as §1

[12] = tested on: Haemophilus influenzae C.L.; experiment: MIC, standard agar-dilution assay; format: cell-based; conditions: Ampicillin-sensitive strain, read-out: MIC
[13] = tested on: Streptococcus sp. group D 2041; experiment: MIC, standard agar-dilution assay; format: cell-based; conditions: read-out: MIC
[14] = tested on: Streptococcus pneumoniae Park I; experiment: MIC, standard agar-dilution assay; format: cell-based; conditions: read-out: MIC
[15] = tested on: Staphylococcus aureus X400; experiment: MIC, standard agar-dilution assay; format: cell-based; conditions: Staphylococcus aureus X400, Methicillin-resistant strain, inducibly-resistant to erythromycin; read-out: MIC
Excerpt: (§2) In addition to excellent in vitro activity against erythromycin-sensitive bacteria, several members of this new series have shown in vitro activity against erythromycin-resistant strains. These include strains which are inducibly-resistant to erythromycin (S.. aureus V41 and X400 and S. epidermidis EPI1) and even strains which are constitutively-resistant (S. epidermidis 270).

[16] = tested on: Staphylococcus aureus V41; experiment: MIC, standard agar-dilution assay; format: cell-based; conditions: Staphylococcus aureus V41, Penicillin-resistant strain, inducibly-resistant to erythromycin; read-out: MIC
Excerpt: as §2

[17] = sc, subcutaneous, read-out: Subcutaneous ED50

Row | SMILES | MIC [1] [µg/mL] | MIC [2] [µg/mL] | MIC [3] [µg/mL] | MIC [4] [µg/mL] | MIC [5] [µg/mL] | MIC [6] [µg/mL] | MIC [7] [µg/mL] | MIC [8] [µg/mL] | ED50 ([9]; po, read-out: Oral ED50) [mg/kg] | ED50 ([10]; po, read-out: Oral ED50) [mg/kg] | ED50 ([11]; po, read-out: Oral ED50) [mg/kg] | MIC [12] [µg/mL] | MIC [13] [µg/mL] | MIC [14] [µg/mL] | MIC [15] [µg/mL] | MIC [16] [µg/mL] | other results
1 | CC[C@H]1OC(=O)[C@H](C)[C@@H](O[C@H]2C[C@@](C)(OC)[C@@H](O)[C@H](C)O2)[C@H](C)[C@@H](O[C@@H]2O[C@H](C)C[C@H](N(C)C)[C@H]2O)[C@](C)(O)C[C@@H](C)[C@H](NCCOCCOC)[C@H](C)[C@@H](O)[C@]1(C)O [Compound 25, 9-Deoxo-9-[[2-(2-methoxyethoxy)ethyl]amino]erythromycin] | 128 (≈ 153 µM) | 64 (≈ 76.5 µM) | 1 (≈ 1.19 µM) | 1 (≈ 1.19 µM) | 0.25 (≈ 0.299 µM) | 0.125 (≈ 0.149 µM) | 4 (≈ 4.78 µM) | 8 (≈ 9.56 µM) | 27.1 | 23.3 | 21.8 | 2 (≈ 2.39 µM) | 8 (≈ 9.56 µM) | 0.015 (≈ 0.0179 µM) | – | – | –
2 | CCCN[C@@H]1[C@H](C)[C@@H](O)[C@](C)(O)[C@@H](CC)OC(=O)[C@H](C)[C@@H](O[C@H]2C[C@@](C)(OC)[C@@H](O)[C@H](C)O2)[C@H](C)[C@@H](O[C@@H]2O[C@H](C)C[C@H](N(C)C)[C@H]2O)[C@](C)(O)C[C@H]1C [Compound 3, 9-Deoxo-9-(n-propylamino)erythromycin] | 128 (≈ 165 µM) | 32 (≈ 41.2 µM) | 0.5 (≈ 0.643 µM) | 1 (≈ 1.29 µM) | 0.125 (≈ 0.161 µM) | 0.03 (≈ 0.0386 µM) | 2 (≈ 2.57 µM) | 0.25 (≈ 0.322 µM) | 3.3 | 11.8 | 7.2 | 1 (≈ 1.29 µM) | 4 (≈ 5.15 µM) | 0.015 (≈ 0.0193 µM) | – | – | ED50 [9, 17]: 1.67 mg/kg; Oral ED50 ([9]; oral): 6.1 mg/kg; ED50 [10, 17]: 6.11 mg/kg; Oral ED50 ([10]; oral): 12.6 mg/kg; ED50 [11, 17]: 1.77 mg/kg; Oral ED50 ([11]; oral): 6.3 mg/kg
3 | CCCCCN[C@@H]1[C@H](C)[C@@H](O)[C@](C)(O)[C@@H](CC)OC(=O)[C@H](C)[C@@H](O[C@H]2C[C@@](C)(OC)[C@@H](O)[C@H](C)O2)[C@H](C)[C@@H](O[C@@H]2O[C@H](C)C[C@H](N(C)C)[C@H]2O)[C@](C)(O)C[C@H]1C [Compound 5, 9-Deoxo-9-(n-pentylamino)erythromycin] | 128 (≈ 159 µM) | 128 (≈ 159 µM) | 0.5 (≈ 0.621 µM) | 0.5 (≈ 0.621 µM) | 0.125 (≈ 0.155 µM) | 0.06 (≈ 0.0745 µM) | 2 (≈ 2.48 µM) | 1 (≈ 1.24 µM) | 8.8 | 25 | 13.6 | 1 (≈ 1.24 µM) | 2 (≈ 2.48 µM) | 0.015 (≈ 0.0186 µM) | – | – | –
4 | CCCCCCCCCCN[C@@H]1[C@H](C)[C@@H](O)[C@](C)(O)[C@@H](CC)OC(=O)[C@H](C)[C@@H](O[C@H]2C[C@@](C)(OC)[C@@H](O)[C@H](C)O2)[C@H](C)[C@@H](O[C@@H]2O[C@H](C)C[C@H](N(C)C)[C@H]2O)[C@](C)(O)C[C@H]1C [Compound 9, 9-Deoxo-9-(n-decylamino)erythromycin] | – | – | 1 (≈ 1.14 µM) | 1 (≈ 1.14 µM) | 0.25 (≈ 0.286 µM) | 0.015 (≈ 0.0171 µM) | 1 (≈ 1.14 µM) | 0.5 (≈ 0.571 µM) | > 50 | > 50 | > 50 | 2 (≈ 2.29 µM) | 2 (≈ 2.29 µM) | 0.015 (≈ 0.0171 µM) | 8 (≈ 9.14 µM) | 4 (≈ 4.57 µM) | –
5 | CCCCCCCCCCCCN[C@@H]1[C@H](C)[C@@H](O)[C@](C)(O)[C@@H](CC)OC(=O)[C@H](C)[C@@H](O[C@H]2C[C@@](C)(OC)[C@@H](O)[C@H](C)O2)[C@H](C)[C@@H](O[C@@H]2O[C@H](C)C[C@H](N(C)C)[C@H]2O)[C@](C)(O)C[C@H]1C [Compound 10, 9-Deoxo-9-(n-dodecylamino)erythromycin] | – | – | 4 (≈ 4.43 µM) | 4 (≈ 4.43 µM) | 1 (≈ 1.11 µM) | 0.5 (≈ 0.554 µM) | 4 (≈ 4.43 µM) | 2 (≈ 2.21 µM) | > 50 | > 45 | > 50 | 8 (≈ 8.86 µM) | 8 (≈ 8.86 µM) | 0.06 (≈ 0.0664 µM) | 8 (≈ 8.86 µM) | 8 (≈ 8.86 µM) | –

From EP0238178B1, “Novel derivatives of erythromycylamine” (ELI LILLY AND COMPANY, priority 1986, dated 1987)
